From paper PMC8296622, “Crystal structure and functional characterization of an oligosaccharide dehydrogenase from Pycnoporus cinnabarinus provides insights into fungal breakdown of lignocellulose” (Biotechnology for Biofuels, 2021)

Experiments:
[1] = molecular target: T1, ODH (oligosaccharide dehydrogenase) (Trametes cinnabarina, UniProt A0A060SC37); assay: X-ray crystallography; type: binding; conditions: ligand-free (sugar-free) enzyme, 1.6 Å; non-covalently bound, oxidized FAD
T1 construct: gene BN946_scf184803.g17

[2] = molecular target: T1, ODH (oligosaccharide dehydrogenase); assay: X-ray crystallography of soaked crystals (data not shown); conditions: bound at three external surface sugar-binding sites, not in the active site

T1 sequence (A0A060SC37 entry or part of it): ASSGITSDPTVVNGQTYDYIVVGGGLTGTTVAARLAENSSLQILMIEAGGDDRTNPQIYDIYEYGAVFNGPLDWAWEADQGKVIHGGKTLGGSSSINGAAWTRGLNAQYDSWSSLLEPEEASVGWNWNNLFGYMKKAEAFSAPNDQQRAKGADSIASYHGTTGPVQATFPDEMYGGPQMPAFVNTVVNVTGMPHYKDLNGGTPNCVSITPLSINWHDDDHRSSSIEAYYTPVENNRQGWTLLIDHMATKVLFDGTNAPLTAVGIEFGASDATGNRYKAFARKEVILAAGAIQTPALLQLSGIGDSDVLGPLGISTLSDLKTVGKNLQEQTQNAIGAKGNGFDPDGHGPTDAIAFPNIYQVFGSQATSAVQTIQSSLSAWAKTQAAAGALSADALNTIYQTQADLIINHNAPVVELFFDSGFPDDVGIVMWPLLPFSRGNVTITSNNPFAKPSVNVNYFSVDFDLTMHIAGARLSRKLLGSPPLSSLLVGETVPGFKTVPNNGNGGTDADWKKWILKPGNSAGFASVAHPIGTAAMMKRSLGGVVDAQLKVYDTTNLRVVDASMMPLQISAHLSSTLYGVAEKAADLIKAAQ

| SMILES | X-ray crystallography [1] | X-ray crystallography of soaked crystals (data not shown) [2] |
| --- | --- | --- |
| Cc1cc2nc3c(=O)[nH]c(=O)nc-3n(C[C@H](O)[C@H](O)[C@H](O)COP(=O)(O)OP(=O)(O)OC[C@H]3O[C@@H](n4cnc5c(N)ncnc54)[C@H](O)[C@@H]3O)c2cc1C [FAD] | The FAD molecule is non-covalently bound to the protein |  |
| OC[C@H]1O[C@@H](O[C@H]2[C@H](O)[C@@H](O)C(O)O[C@@H]2CO)[C@H](O)[C@@H](O)[C@@H]1O (mixture of isomers) [G4G, cellobiose] |  | the ligand was clearly bound to (and modeled at) the three SBSs (data not shown) |
